This note sets out measurements from ChEMBL document CHEMBL1147984, “Discovery, synthesis, and in vivo activity of a new class of pyrazoloquinazolines as selective inhibitors of aurora B kinase” (J Med Chem, 2007).

The target of one data set is Aurora kinase B (Homo sapiens, UniProt Q96GD4).
The target in data set [1] is T1, Aurora kinase A (Homo sapiens, UniProt O14965).
T1 sequence (O14965 whole entry): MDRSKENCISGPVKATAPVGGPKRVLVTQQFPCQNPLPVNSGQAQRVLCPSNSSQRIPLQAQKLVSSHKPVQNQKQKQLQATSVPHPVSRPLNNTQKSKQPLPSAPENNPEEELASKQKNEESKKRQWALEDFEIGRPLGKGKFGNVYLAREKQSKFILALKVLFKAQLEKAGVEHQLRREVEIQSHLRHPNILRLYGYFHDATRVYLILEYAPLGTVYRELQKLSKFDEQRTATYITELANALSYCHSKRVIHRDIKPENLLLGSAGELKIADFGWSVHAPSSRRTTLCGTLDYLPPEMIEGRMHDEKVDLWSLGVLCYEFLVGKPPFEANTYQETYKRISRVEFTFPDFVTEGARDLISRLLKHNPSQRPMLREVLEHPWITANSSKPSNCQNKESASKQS
Description: (§1) Inhibition of human recombinant Aurora A

Data set [2] in a line: solubility (tris buffer pH9). In kind it is physicochemical. The note with it: pH 9, read-out: S.
The target of data set [3] is T1, Aurora kinase A. The source holds these as a separate data set.
Description: as §1
Data set [4] is described as follows: aqueous solubility. In kind it is physicochemical. The note with it: read-out: S.
A short description of data set [5]: protein binding. It is filed as ADME. The note with it: read-out: PB (converted).
A further data set is described as follows: physchem. The conditions noted are these: octanol/water, pH 7.4.
Data set [6] in a line: P450 isoforms 3A4. In kind it is ADME.
Another data set is described as follows: in vivo. The conditions noted are these: rat.
The conditions of data set [7]: rat.

Values after ≈ are worked out from the molar mass of the structure shown. Values joined by “and” are separate entries in the source; they are usually repeats but may differ in a detail not shown here. Equal values may be shown once.

Aurora kinase B, sequence (Q96GD4 whole entry): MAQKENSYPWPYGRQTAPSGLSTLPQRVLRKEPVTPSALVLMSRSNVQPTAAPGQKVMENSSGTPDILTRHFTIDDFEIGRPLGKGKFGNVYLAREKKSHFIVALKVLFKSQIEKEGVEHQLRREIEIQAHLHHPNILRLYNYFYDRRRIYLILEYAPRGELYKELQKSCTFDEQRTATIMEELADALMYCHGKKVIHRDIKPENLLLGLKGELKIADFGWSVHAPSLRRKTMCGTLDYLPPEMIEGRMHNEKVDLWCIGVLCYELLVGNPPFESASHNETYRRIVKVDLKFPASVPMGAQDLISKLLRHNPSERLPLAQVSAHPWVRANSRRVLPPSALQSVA
Description for Aurora kinase B: Inhibition of human recombinant Aurora B
Description for SW-620: inhibition of histone-H3 phosphorylation following 24 hr incubation in SW620 tumor cells

With `COc1cc2c(Nc3cc(CC(=O)Nc4cccc(F)c4F)[nH]n3)ncnc2cc1OCCCN1CCC(CCO)CC1`, the results for the inhibitory constant (Ki) on Aurora kinase B, at Aurora kinase A [1] and at SW-620 were < 1 nM, 280 nM and 130 nM, respectively.

For the compound `COc1cc2c(Nc3cc(CC(=O)Nc4cccc(F)c4F)[nH]n3)ncnc2cc1OCCCN1CCC(CO)CC1`, the affinity at SW-620 corresponds to a Ki of 540 nM.

For `CCN(CCCOc1ccc2c(Nc3cc(CC(=O)Nc4cccc(F)c4)n[nH]3)ncnc2c1)CCOP(=O)(O)O` [BARASERTIB], the solubility in data set [2] was 25 mg/mL (≈ 42.5 mM).

Regarding `COc1cc2c(Nc3cc(CC(=O)Nc4cccc(C#N)c4)[nH]n3)ncnc2cc1OCCCN1CCC(CO)CC1`, the Ki at Aurora kinase A [1] was 2600 nM; on Aurora kinase A [3], 83 nM; at SW-620, > 10000 nM.

As to `CCCN(CCCOc1cc2ncnc(Nc3cc(CC(=O)Nc4cccc(F)c4F)[nH]n3)c2cc1OC)CCOP(=O)(O)O`, the solubility in data set [2] is 25 mg/mL (≈ 38.5 mM).

As for `CCN(CCO)CCCOc1ccc2c(Nc3cc(CC(=O)Nc4cccc(F)c4F)[nH]n3)ncnc2c1`, the results for the Ki at Aurora kinase B, on Aurora kinase A [1] and on SW-620 were < 1 nM, 160 nM and 7 nM, respectively.

`CCCN(CCO)CCCOc1ccc2c(Nc3cc(CC(=O)Nc4cccc(F)c4F)[nH]n3)ncnc2c1`: the Ki on Aurora kinase B is < 1 nM; at Aurora kinase A [1], 350 nM; at SW-620, 2 nM.

`COc1cc2c(Nc3ncc(CC(=O)Nc4cccc(F)c4)s3)ncnc2cc1OCCCN1CCC(COP(=O)(O)O)CC1`: in data set [4], the solubility is > 10 mg/mL.

Take `O=C(Cc1cc(Nc2ncnc3cc(OCCCN4CCC[C@@H]4CO)ccc23)n[nH]1)Nc1cccc(F)c1`: the Ki was < 1 nM on Aurora kinase B, 1400 nM on Aurora kinase A [1] and 24 nM on SW-620.

For the compound `COc1cc2c(Nc3cc(CC(=O)Nc4cccc(F)c4F)[nH]n3)ncnc2cc1OCCCN1CCC(O)CC1`, the Ki at Aurora kinase B is < 1 nM; on Aurora kinase A [1] it was 220 nM; on SW-620, 78 nM.

In the case of `COc1cc2c(Nc3cc(CC(=O)Nc4cccc(Cl)c4)[nH]n3)ncnc2cc1OCCCN1CCC(CO)CC1`, the inhibition constant (Ki) turned out to be 450 nM at Aurora kinase A [1], 8 nM on Aurora kinase A [3] and 1200 nM at SW-620.

In the case of `CCN(CCO)CCCOc1cc2ncnc(Nc3cc(CC(=O)Nc4cccc(F)c4F)[nH]n3)c2cc1OC`, in data set [5], the fraction unbound is 0.17. Further, the figures for the Ki on Aurora kinase B, on Aurora kinase A [1] and at SW-620 were < 1 nM, 360 nM and 45 nM, respectively. For the same compound, the logD in “physchem” worked out at 1.9. The 50% inhibitory concentration (IC50) in data set [6] was > 10000 nM.

As for `COc1cc2c(Nc3cc(CC(=O)Nc4cccc([N+](=O)[O-])c4)[nH]n3)ncnc2cc1OCCCN1CCC(CO)CC1`, the Ki at Aurora kinase A [1] is 890 nM; at Aurora kinase A [3] it was 39 nM; at SW-620, > 10000 nM.

`COc1cc2c(Nc3cc(CC(=O)Nc4ccc(F)cc4)[nH]n3)ncnc2cc1OCCCN1CCC(CO)CC1`: the Ki at Aurora kinase A [1] was 2000 nM; on Aurora kinase A [3] it was 30 nM; on SW-620, 2600 nM.

For `COc1cc2c(Nc3cc(CC(=O)Nc4cccc(C(F)(F)F)c4)[nH]n3)ncnc2cc1OCCCN1CCC(CO)CC1`, the Ki is 510 nM at Aurora kinase B, 13 nM on Aurora kinase A [3] and 1800 nM on SW-620.

For `COc1cc2c(Nc3cc(CC(=O)Nc4cc(F)cc(F)c4)[nH]n3)ncnc2cc1OCCCN1CCC(CO)CC1`, the Ki on SW-620 is 370 nM.

Consider `CCN(CCO)CCCOc1cc2ncnc(Nc3cc(CC(=O)Nc4cccc(F)c4)[nH]n3)c2cc1OC`, for which, in data set [5], the fraction unbound was 0.05. For the same compound, the Ki at Aurora kinase B was 1 nM; at Aurora kinase A [1] it was 190 nM; at SW-620, 270 nM. In “physchem”, this compound showed a logD of 2.1.

As for `O=C(Cc1cc(Nc2ncnc3cc(OCCCN4CCC[C@@H]4COP(=O)(O)O)ccc23)n[nH]1)Nc1cccc(F)c1F`, the solubility in [2] turned out to be 25 mg/mL (≈ 40.5 mM).

In the case of `COc1cc2c(Nc3cc(CC(=O)Nc4cccc(O)c4)[nH]n3)ncnc2cc1OCCCN1CCC(CO)CC1`, the Ki is 4000 nM on Aurora kinase A [1], 140 nM at Aurora kinase A [3] and > 10000 nM at SW-620.

In the case of `COc1cc2c(Nc3cc(CC(=O)Nc4cccc(F)c4)[nH]n3)ncnc2cc1OCCCNCCO`, the inhibition constant (Ki) is 1 nM at Aurora kinase B, 690 nM on Aurora kinase A [1] and 630 nM at SW-620.

Regarding `CCCN(CCO)CCCOc1cc2ncnc(Nc3cc(CC(=O)Nc4cccc(F)c4)[nH]n3)c2cc1OC`, the Ki worked out at 2 nM on Aurora kinase B, 220 nM at Aurora kinase A [1] and 290 nM on SW-620.

For the compound `COc1cc2c(Nc3cc(CC(=O)Nc4cccc(F)c4F)[nH]n3)ncnc2cc1OCCCN1CCC[C@@H]1CO`, the fraction unbound in data set [5] is 0.15. Also, the values for the Ki at Aurora kinase B, on Aurora kinase A [1] and at SW-620 were 1 nM, 94 nM and 42 nM, respectively. In the data set “physchem”, this compound yielded a logD of 2. Further, the clearance in the data set “in vivo” came to 63 mL/min/kg. The same compound came in with an AB in data set [7] of 85%.

Regarding `COc1cc2c(Nc3cc(CC(=O)Nc4cccc(F)c4)[nH]n3)ncnc2cc1OCCCN(C)CCO`, the Ki at Aurora kinase B is < 1 nM; on Aurora kinase A [1] it was 65 nM; on SW-620, 120 nM.

For the compound `COc1cc2c(Nc3cc(CC(=O)Nc4cccc(F)c4F)[nH]n3)ncnc2cc1OCCCN1CCC[C@@H]1COP(=O)(O)O`, the solubility in data set [2] came to 25 mg/mL (≈ 38.6 mM).

For the compound `COc1cc2c(Nc3cc(CC(=O)Nc4ccccc4)[nH]n3)ncnc2cc1OCCCN1CCC(CO)CC1`, the Ki on Aurora kinase A [1] was 1600 nM and 1200 nM; on Aurora kinase A [3], 18 nM.

For `COc1cc2c(Nc3cc(CC(=O)Nc4cccc(F)c4F)[nH]n3)ncnc2cc1OCCCN1CCC[C@H]1CO`, the Ki at Aurora kinase B was < 1 nM; at Aurora kinase A [1] it was 39 nM; on SW-620, 45 nM.

`COc1cc2c(Nc3ncc(CC(=O)Nc4cccc(F)c4)s3)ncnc2cc1OCCCN1CCC(CO)CC1`: in [5], the fraction unbound is 0.02. At SW-620, this compound displayed a Ki of 5 nM.

On to `COc1cc2c(Nc3cc(CC(=O)Nc4ccccc4F)[nH]n3)ncnc2cc1OCCCN1CCC(CO)CC1`, for which the inhibition constant (Ki) on Aurora kinase A [1] was 1400 nM and 470 nM; on Aurora kinase A [3], 14 nM.

With `COc1cc2c(Nc3cc(CC(=O)Nc4cccc(F)c4)[nH]n3)ncnc2cc1OCCCN1CCC[C@@H]1CO`, the fraction unbound in data set [5] is 0.05. Besides, the Ki worked out at 1 nM at Aurora kinase B, 110 nM on Aurora kinase A [1] and 330 nM at SW-620.

Consider `CCCN(CCO)CCCOc1ccc2c(Nc3cc(CC(=O)Nc4cccc(F)c4)[nH]n3)ncnc2c1`, for which the Ki at Aurora kinase B was < 1 nM; on Aurora kinase A [1] it was 980 nM; at SW-620, 7 nM.

`COc1cccc(NC(=O)Cc2cc(Nc3ncnc4cc(OCCCN5CCC(CO)CC5)c(OC)cc34)[nH]n2)c1` displayed a Ki at SW-620 of 5500 nM.

Take `COc1cc2c(Nc3cc(CC(=O)Nc4cccc(F)c4F)[nH]n3)ncnc2cc1OCCCN1CCN(CCO)CC1`: the Ki on Aurora kinase B is < 1 nM; on Aurora kinase A [1] it was 55 nM; on SW-620 it was 71 nM.

Take `COc1cc2c(Nc3cc(CC(=O)Nc4cccc(F)c4F)[nH]n3)ncnc2cc1OCCCN(CCO)CC(C)C`: the Ki at Aurora kinase B was < 1 nM; on Aurora kinase A [1], 18 nM; on SW-620 it was < 1 nM. The compound further yielded a logD in “physchem” of 3.6. This compound returned an IC50 in data set [6] of 400 nM.

As to `O=C(Cc1cc(Nc2ncnc3cc(OCCCN4CCC[C@@H]4CO)ccc23)n[nH]1)Nc1cccc(F)c1F`, the values for the Ki at Aurora kinase B, at Aurora kinase A [1] and at SW-620 were < 1 nM, 950 nM and 5 nM, respectively. Besides, the logD in the data set “physchem” was 2.1. The compound also came in with a clearance in the data set “in vivo” of 15 mL/min/kg. Also, in [7], the AB is 89%.

As usually defined, the Ki is the dissociation constant of the complex between target and ligand, obtained from inhibition or displacement. A higher Ki goes with a looser hold on the target. Broadly, the logD is the decadic logarithm of the distribution of all forms, ionised or not, between an organic phase and buffer at a given pH. Low values mean lower lipophilicity, high ones higher lipophilicity. Broadly, the IC50 is the concentration that inhibits the measured activity by half. Low readings indicate greater potency in that assay, high ones weaker potency in that assay. The clearance is the volume of plasma or blood freed of the substance per unit of time. Low readings indicate a low capacity for elimination, high ones a high capacity for elimination.
